According to patent publication US20230116707A1, “DETECTION OF NOVEL DEGRADATION-RELATED INTERACTIONS” (Orionis Biosciences, Inc., priority 2019, published 2023):

Assays:
Assay type in all cases: cell-based
CRBN-GSPT1 interaction = molecular target: T1, CRBN-GSPT1 interaction (Homo sapiens, UniProt Q96SW2); test: MAPPIT-derivative assay, CRBN bait receptor fusion (pSEL-CRBN) with gp130-GSPT1 (domain 2+3), luciferase reporter in HEK293T cells; settings: dose-response, EPO-stimulated, 24 hours compound treatment
T1 construct: expressed in transfected cells; host or cells: HEK293T
From the text: (§1) In order to identify ligand-induced CRBN substrates, or neosubstrates, here we use a derivative of the MAPPIT assay, applying the procedure described in Lemmens, et al. “MAPPIT, a mammalian two-hybrid method for in-cell detection of protein-protein interactions,” Methods Mol Biol. 2015; 1278:447-55. The traditional MAPPIT assay has been used to monitor protein-protein interactions. A bait protein (protein A) is expressed as a fusion protein in which it is genetically fused to an engineered intracellular receptor domain of the leptin receptor, which is itself fused to the extracellular domain of the erythropoietin (Epo) receptor. […] Activation of STAT3 can be monitored by introduction of a STAT3-responsive reporter gene, including a luciferase-encoding gene or a gene encoding a fluorescent marker such as GFP or some other type of Fluorescent Protein (EGFP, etc.). […]
(§2) In this Example 1, we used a derivative of the MAPPIT assay that we developed specifically for use in determining CRBN-ligand induced protein interactions, i.e. using a specific CRBN bait protein and assaying for ligand-dependent induction of protein complex formation. The CRBN bait protein is expressed as a fusion with the MAPPIT chimeric membrane receptor and the interacting target protein is fused with the cytoplasmic gp130 receptor fragment (gp130-IKZF1(isoform 7), gp130-target X, gp130-GSPT1(domain 2+3) or gp130-GSPT2). […]

CRBN-GSPT2 interaction = molecular target: T2, CRBN-GSPT2 interaction (Homo sapiens, UniProt Q96SW2); test: MAPPIT-derivative assay, CRBN bait receptor fusion (pSEL-CRBN) with gp130-GSPT2, luciferase reporter in HEK293T cells; settings: dose-response, EPO-stimulated, 24 hours compound treatment
T2 construct: expressed in transfected cells; host or cells: HEK293T
From the text: as §1, §2

[1] = molecular target: T3, FKBP1A (FKBP12)-calcineurin PPP3CA interaction (Homo sapiens, UniProt P62942); test: MAPPIT-derivative assay, FKBP1A bait receptor fusion (pSEL-FKBP1A) with gp130 fusion of calcineurin PPP3CA catalytic subunit; settings: dose-response; without or with co-expression of PPP3R2 regulatory subunit
T3 construct: expressed in transfected cells; host or cells: HEK293T
Procedure: (§3) Luciferase activity was measured 24 hours after test compound treatment using the Luciferase Assay System kit (PROMEGA, Madison, Wis.) with an Ensight plate reader (PERKIN ELMER LIFE SCIENCES, Waltham, Mass.). […] Error bars represent standard deviations. Curves were fit using 4-parameter nonlinear regression in […] PRISM software.

[2] = molecular target: T4, CRBN with proteins of a human ORF(eome) cDNA library (Homo sapiens, UniProt Q96SW2); test: MAPPIT-derivative cell microarray screen of a human ORF(eome) cDNA library with CRBN bait (pSEL-CRBN); settings: CC-220 10 μM; four ORF cDNAs confirmed in dose-response
T4 construct: expressed in transfected cells; host or cells: HEK293T
Procedure: In order to identify ligand-induced CRBN substrates, or neosubstrates, a MAPPIT cell microarray screen was performed using the procedure described in Lievens, et al. “Proteome-scale binary interactomics in human cells.” Molecular & Cellular Proteomics 15.12 (2016): 3624-3639. […] These transfected cells were then added to microarray screening plates containing a prey gp130 fusion expression plasmid collection covering over 15,000 ORFs. Each spot in the microarray contained a different gp130-ORF fusion expression plasmid, as well as a STAT3-responsive fluorescence protein-encoding reporter plasmid. CRBN bait transfected cells landing and attaching on these spots therefore become transfected as well with the gp130-ORF prey plasmid and the reporter plasmid, resulting in a different CRBN-ORF combination being tested in the cells on every different microarray spot. Twenty-four hours after transfection cells were differentially stimulated with erythropoietin with and without the CRBN ligand CC-220 (10 μM), and reporter signal (GFP-like fluorescence reporter) was read out 48 hours later.

[3] = molecular target: T5, FKBP1A (FKBP12)-MTOR (FRB domain) interaction (Homo sapiens, UniProt P62942); test: MAPPIT-derivative assay, FKBP1A bait receptor fusion (pSEL-FKBP1A) with gp130-MTOR (FRB domain); settings: dose-response, HEK293T, EPO-stimulated
T5 construct: expressed in transfected cells; host or cells: HEK293T
Procedure: as §3
Luciferase activity was measured 24 hours after test compound treatment using the Luciferase Assay System kit (PROMEGA, Madison, Wis.) with an Ensight plate reader (PERKIN ELMER LIFE SCIENCES, Waltham, Mass.). […] Error bars represent standard deviations.

T3 sequence (P62942 whole entry, other chains not shown, the tested form may be a part): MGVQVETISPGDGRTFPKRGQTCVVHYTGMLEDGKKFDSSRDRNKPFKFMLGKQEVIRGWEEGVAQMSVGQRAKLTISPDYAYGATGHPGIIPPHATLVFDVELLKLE
T3 sequence (Q96LZ3 whole entry partner, other chains not shown, the tested form may be a part): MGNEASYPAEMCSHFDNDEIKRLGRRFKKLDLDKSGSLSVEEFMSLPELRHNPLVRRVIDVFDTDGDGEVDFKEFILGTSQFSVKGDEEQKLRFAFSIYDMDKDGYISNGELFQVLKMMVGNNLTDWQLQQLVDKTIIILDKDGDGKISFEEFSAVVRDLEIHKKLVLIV
T5 sequence (P62942 whole entry, the tested form may be a part): as the sequence (P62942 whole entry, other chains not shown, the tested form may be a part) above
T5 sequence (P42345 2012-2144 partner limits assumed): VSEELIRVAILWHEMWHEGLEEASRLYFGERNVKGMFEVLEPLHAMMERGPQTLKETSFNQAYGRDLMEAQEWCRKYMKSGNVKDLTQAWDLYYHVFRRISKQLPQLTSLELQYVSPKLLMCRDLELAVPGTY
T2 sequence (Q96SW2 whole entry, the tested form may be a part): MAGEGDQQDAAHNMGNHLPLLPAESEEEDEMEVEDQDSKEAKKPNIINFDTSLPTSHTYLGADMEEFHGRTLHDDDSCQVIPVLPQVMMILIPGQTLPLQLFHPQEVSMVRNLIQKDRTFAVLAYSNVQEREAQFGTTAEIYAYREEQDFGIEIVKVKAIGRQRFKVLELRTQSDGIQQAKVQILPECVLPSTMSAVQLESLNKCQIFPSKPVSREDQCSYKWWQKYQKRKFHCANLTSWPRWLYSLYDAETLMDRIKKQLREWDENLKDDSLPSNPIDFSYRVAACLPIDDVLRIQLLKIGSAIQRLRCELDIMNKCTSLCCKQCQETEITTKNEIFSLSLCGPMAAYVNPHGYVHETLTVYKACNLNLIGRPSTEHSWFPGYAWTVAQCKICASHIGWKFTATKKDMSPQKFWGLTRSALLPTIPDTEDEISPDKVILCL
T2 sequence (Q8IYD1 whole entry partner, the tested form may be a part): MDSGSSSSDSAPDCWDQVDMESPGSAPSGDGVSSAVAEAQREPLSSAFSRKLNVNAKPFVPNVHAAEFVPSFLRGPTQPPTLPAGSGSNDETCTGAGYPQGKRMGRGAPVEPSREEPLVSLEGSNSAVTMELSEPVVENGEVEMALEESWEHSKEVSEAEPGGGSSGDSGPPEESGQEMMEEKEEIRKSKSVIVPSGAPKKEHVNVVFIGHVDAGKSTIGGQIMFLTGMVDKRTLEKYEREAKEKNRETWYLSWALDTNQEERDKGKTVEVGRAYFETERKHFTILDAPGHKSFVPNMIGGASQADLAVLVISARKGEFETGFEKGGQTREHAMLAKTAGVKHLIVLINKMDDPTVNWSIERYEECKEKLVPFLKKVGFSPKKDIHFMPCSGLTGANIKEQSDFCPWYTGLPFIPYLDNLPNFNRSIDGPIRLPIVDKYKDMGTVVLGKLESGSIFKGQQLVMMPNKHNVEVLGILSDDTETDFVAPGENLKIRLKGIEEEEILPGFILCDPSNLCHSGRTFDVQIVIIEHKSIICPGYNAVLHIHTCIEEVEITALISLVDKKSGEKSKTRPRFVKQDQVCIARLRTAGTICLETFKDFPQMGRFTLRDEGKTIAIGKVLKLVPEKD
T2 sequence (Q16531 whole entry partner, the tested form may be a part): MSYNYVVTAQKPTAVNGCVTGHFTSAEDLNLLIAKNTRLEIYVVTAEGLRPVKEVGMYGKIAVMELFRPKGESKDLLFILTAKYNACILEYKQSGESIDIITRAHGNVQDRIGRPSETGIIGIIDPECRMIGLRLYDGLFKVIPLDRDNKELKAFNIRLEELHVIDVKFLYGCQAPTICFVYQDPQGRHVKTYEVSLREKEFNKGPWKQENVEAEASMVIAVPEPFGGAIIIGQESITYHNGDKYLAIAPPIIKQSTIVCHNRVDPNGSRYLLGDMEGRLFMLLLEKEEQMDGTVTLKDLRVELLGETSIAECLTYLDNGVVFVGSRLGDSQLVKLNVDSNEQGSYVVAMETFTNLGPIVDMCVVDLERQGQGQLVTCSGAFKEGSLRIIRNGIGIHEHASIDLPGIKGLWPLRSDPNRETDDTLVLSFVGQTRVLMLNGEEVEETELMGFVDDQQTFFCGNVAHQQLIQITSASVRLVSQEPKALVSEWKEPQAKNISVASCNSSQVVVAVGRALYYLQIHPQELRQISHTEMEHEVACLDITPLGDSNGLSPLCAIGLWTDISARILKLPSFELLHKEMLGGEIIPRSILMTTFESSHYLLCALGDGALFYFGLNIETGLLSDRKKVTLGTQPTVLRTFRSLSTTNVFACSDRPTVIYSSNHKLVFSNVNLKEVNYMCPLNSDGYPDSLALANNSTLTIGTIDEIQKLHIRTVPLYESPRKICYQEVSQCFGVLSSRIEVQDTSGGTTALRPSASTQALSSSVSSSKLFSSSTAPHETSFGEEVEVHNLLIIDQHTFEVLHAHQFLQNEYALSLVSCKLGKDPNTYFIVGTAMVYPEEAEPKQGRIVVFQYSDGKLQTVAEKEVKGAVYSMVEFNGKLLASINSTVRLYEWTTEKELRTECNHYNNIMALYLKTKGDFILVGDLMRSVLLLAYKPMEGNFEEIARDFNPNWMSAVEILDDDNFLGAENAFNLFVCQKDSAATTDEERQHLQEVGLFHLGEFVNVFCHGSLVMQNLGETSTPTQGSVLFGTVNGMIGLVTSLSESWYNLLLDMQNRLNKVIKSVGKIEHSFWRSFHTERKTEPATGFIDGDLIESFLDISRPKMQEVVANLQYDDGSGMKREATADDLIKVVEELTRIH
T4 sequence (Q96SW2 whole entry): as the sequence (Q96SW2 whole entry, the tested form may be a part) above
T4 sequence (Q16531 whole entry partner): as the sequence (Q16531 whole entry partner, the tested form may be a part) above
T1 sequence (Q96SW2 whole entry, the tested form may be a part): as the sequence (Q96SW2 whole entry, the tested form may be a part) above
T1 sequence (P15170 299-495 partner limits assumed): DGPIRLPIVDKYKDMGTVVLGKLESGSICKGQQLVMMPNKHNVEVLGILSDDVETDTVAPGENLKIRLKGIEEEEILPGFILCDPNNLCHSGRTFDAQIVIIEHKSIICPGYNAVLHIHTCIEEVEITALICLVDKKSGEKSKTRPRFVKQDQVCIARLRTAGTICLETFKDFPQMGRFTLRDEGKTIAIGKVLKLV
T1 sequence (Q16531 whole entry partner, the tested form may be a part): as the sequence (Q16531 whole entry partner, the tested form may be a part) above

Cc1ccc(NC(=O)NCc2ccc3c(c2)CN(C2CCC(=O)NC2=O)C3=O)cc1Cl (stereo not drawn) [CC-885]
compound-induced recruitment of GSPT1 to CRBN (reporter signal) (CRBN-GSPT1 interaction): only recruited through CC-885 | compound-induced recruitment of GSPT2 to CRBN (reporter signal) (CRBN-GSPT2 interaction): only recruited through CC-885

C=CC[C@@H]1/C=C(\C)C[C@H](C)C[C@H](OC)[C@H]2O[C@@](O)(C(=O)C(=O)N3CCCC[C@H]3C(=O)O[C@H](/C(C)=C/[C@@H]3CC[C@@H](O)[C@H](OC)C3)[C@H](C)[C@@H](O)CC1=O)[C@H](C)C[C@@H]2OC [FK506, tacrolimus]
compound-dependent binding of PPP3CA to FKBP1A (reporter signal) [1]: binding of PPP3CA can be monitored

O=C1CC[C@H](N2Cc3c(OCc4ccc(CN5CCOCC5)cc4)cccc3C2=O)C(=O)N1 [CC-220]
fluorescence reporter signal, ORF proteins recruited to CRBN [2]: significant induction of signal is observed for a number of ORF cDNAs

CC[C@@H]1/C=C(\C)C[C@H](C)C[C@H](OC)[C@H]2O[C@@](O)(C(=O)C(=O)N3CCCC[C@H]3C(=O)O[C@H](/C(C)=C/[C@@H]3CC[C@H](Cl)[C@H](OC)C3)[C@H](C)[C@@H](O)CC1=O)[C@H](C)C[C@@H]2OC [pimecrolimus]
compound-dependent binding of PPP3CA to FKBP1A (reporter signal) [1]: binding of PPP3CA can be monitored

CO[C@H]1C[C@@H]2CC[C@@H](C)[C@@](O)(O2)C(=O)C(=O)N2CCCC[C@H]2C(=O)O[C@H]([C@H](C)C[C@@H]2CC[C@@H](OCCO)[C@H](OC)C2)CC(=O)[C@H](C)/C=C(\C)[C@@H](O)[C@@H](OC)C(=O)[C@H](C)C[C@H](C)/C=C/C=C/C=C/1C [everolimus]
compound-induced recruitment of MTOR to FKBP1A (reporter signal) [3]: compound-induced recruitment of MTOR is detected
